From patent US20240109930A1, “TRIAZOLYL-METHYL SUBSTITUTED ALPHA-D-GALACTOPYRANOSIDE DERIVATIVES” (Idorsia Pharmaceuticals Ltd, priority 2021, published 2024)

How the values were obtained:
human Gal-1 (hGal-1) = human Gal-1 (hGal-1) (Homo sapiens, UniProt P09382, C131S/C17S/C43S/C61S/C89S); test: Competitive binding assay: biotinylated hGal-1 binding to microplate-adsorbed asialofetuin (ASF); conditions: IC50 values from several measurements given as geomean
How it was run: (§1)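 Biotinylated hGal-3 or hGal-1 (preferably cysteine-free Cys→Ser mutant), 300–1000 ng/mL, competes with compound for ASF-coated wells for 3 h at 4 °C. Bound lectin detected with streptavidin-peroxidase (80 ng/mL, 1 h, 4 °C) and ABTS by absorbance; IC50 reported as geomean of several runs.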

human Gal-3 (hGal-3) = human Gal-3 (hGal-3) (Homo sapiens (Human), UniProt P17931); test: Competitive binding assay: biotinylated hGal-3 binding to microplate-adsorbed asialofetuin (ASF); conditions: IC50 values from several measurements given as geomean
Chain of human Gal-3 (hGal-3) (P17931 whole entry): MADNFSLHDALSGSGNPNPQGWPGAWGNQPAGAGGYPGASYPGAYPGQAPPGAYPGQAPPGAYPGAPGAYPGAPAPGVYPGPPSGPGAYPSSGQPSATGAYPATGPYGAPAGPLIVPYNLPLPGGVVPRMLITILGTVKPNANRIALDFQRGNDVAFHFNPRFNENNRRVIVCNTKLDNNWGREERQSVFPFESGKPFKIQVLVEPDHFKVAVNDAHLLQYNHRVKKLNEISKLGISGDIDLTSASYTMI
How it was run: as §1

| SMILES | IC50 (human Gal-1 (hGal-1)) [nM] | IC50 (human Gal-3 (hGal-3)) [nM] |
| --- | --- | --- |
| CO[C@@H]1[C@@H](n2cc(-c3ccc(Cl)c(F)c3F)nn2)[C@@H](O)[C@@H](CO)O[C@@H]1Cc1cn([C@H]2CCCC[C@@H]2F)nn1 [Example 2.1.81.D, (2R,3R,4S,5R,6R)-4-(4-(4-chloro-2,3-difluorophenyl)-1H-1,2,3-triazol-1-yl)-6-((1-((1S,2S)-2-fluorocyclohexyl)-1H-1,2,3-triazol-4-yl)methyl)-2-(hydroxymethyl)-5-methoxytetrahydro-2H-pyran-3-ol] | 2180 | 60 |
| CO[C@@H]1[C@@H](n2cc(-c3ccc(C)c(F)c3F)nn2)[C@@H](O)[C@@H](CO)O[C@@H]1Cc1cn(C2(C(F)(F)F)COC2)nn1 [Ex 1.1.58.] | 800 | 30 |
| CO[C@@H]1[C@@H](n2cc(-c3ccc(Cl)c(F)c3F)nn2)[C@@H](O)[C@@H](CO)O[C@@H]1Cc1cn(C2(C(F)(F)F)CCC(F)(F)CC2)nn1 [Ex 2.1.71., (2R,3R,4S,5R,6R)-4-(4-(4-chloro-2,3-difluorophenyl)-1H-1,2,3-triazol-1-yl)-6-((1-(4,4-difluoro-1-(trifluoromethyl)cyclohexyl)-1H-1,2,3-triazol-4-yl)methyl)-2-(hydroxymethyl)-5-methoxytetrahydro-2H-pyran-3-ol] | 670 | 50 |
| CO[C@@H]1[C@@H](n2cc(-c3ccc(Cl)c(F)c3F)nn2)[C@@H](O)[C@@H](CO)O[C@@H]1Cc1cn([C@H]2CCCC2(F)F)nn1 [Example 2.1.64.B, (2R,3R,4S,5R,6R)-4-(4-(4-chloro-2,3-difluorophenyl)-1H-1,2,3-triazol-1-yl)-6-((1-((S)-2,2-difluorocyclopentyl)-1H-1,2,3-triazol-4-yl)methyl)-2-(hydroxymethyl)-5-methoxytetrahydro-2H-pyran-3-ol] | 2340 | 30 |
| CO[C@@H]1[C@@H](n2cc(-c3ccc(Cl)c(F)c3F)nn2)[C@@H](O)[C@@H](CO)O[C@@H]1Cc1cn(C2(C)CC(F)C2)nn1 (stereo partly drawn) [Example 2.1.47.A, (2R,3R,4S,5R,6R)-4-(4-(4-chloro-2,3-difluorophenyl)-1H-1,2,3-triazol-1-yl)-6-((1-((1S,3S)-3-fluoro-1-methylcyclobutyl)-1H-1,2,3-triazol-4-yl)methyl)-2-(hydroxymethyl)-5-methoxytetrahydro-2H-pyran-3-ol] | 1370 | 30 |
| CO[C@@H]1[C@@H](n2cc(-c3ccc(F)c(F)c3F)nn2)[C@@H](O)[C@@H](CO)O[C@@H]1Cn1cc(C2(C)CC2)nn1 [Ex 3.2.23.] | 300 | 80 |
| CO[C@@H]1[C@@H](n2cc(-c3ccc(F)c(F)c3F)nn2)[C@@H](O)[C@@H](CO)O[C@@H]1Cn1cc(C2(CO)CC2)nn1 [Ex 3.2.4.] | 650 | 100 |
| CO[C@@H]1[C@@H](n2cc(-c3ccc(F)c(F)c3F)nn2)[C@@H](O)[C@@H](CO)O[C@@H]1Cc1cn(C2(C)CCC2)nn1 [Ex 3.1.13.] | 290 | 30 |
| CO[C@@H]1[C@@H](n2cc(-c3ccc(Cl)c(F)c3F)nn2)[C@@H](O)[C@@H](CO)O[C@@H]1Cc1cn(C2(C(F)(F)F)CCC2)nn1 [Ex 2.1.55.] | 620 | 20 |
| CO[C@@H]1[C@@H](n2cc(-c3ccc(Cl)c(F)c3F)nn2)[C@@H](O)[C@@H](CO)O[C@@H]1Cc1cn(C2(C)CCOC2)nn1 (stereo partly drawn) [Ex 2.1.42.] | 1830 | 40 |
| CO[C@@H]1[C@@H](n2cc(-c3ccc(Cl)c(F)c3F)nn2)[C@@H](O)[C@@H](CO)O[C@@H]1Cc1cn(C2(CO)CC(F)(F)C2)nn1 [Ex 2.1.18.] | 2810 | 40 |
| CO[C@@H]1[C@@H](n2cc(-c3ccc(C)c(F)c3F)nn2)[C@@H](O)[C@@H](CO)O[C@@H]1Cc1cn([C@]2(C)C[C@@H](O)C2)nn1 [Ex 1.1.27.] | 1410 | 30 |
| CO[C@@H]1[C@@H](n2cc(-c3ccc(Cl)c(F)c3F)nn2)[C@@H](O)[C@@H](CO)O[C@@H]1Cc1cn([C@H]2CCC[C@H]2F)nn1 [Example 2.1.79.B, (2R,3R,4S,5R,6R)-4-(4-(4-chloro-2,3-difluorophenyl)-1H-1,2,3-triazol-1-yl)-6-((1-((1S,2R)-2-fluorocyclopentyl)-1H-1,2,3-triazol-4-yl)methyl)-2-(hydroxymethyl)-5-methoxytetrahydro-2H-pyran-3-ol] | 3160 | 30 |
| CO[C@@H]1[C@@H](n2cc(-c3ccc(F)c(F)c3F)nn2)[C@@H](O)[C@@H](CO)O[C@@H]1Cc1cn(C2(C(F)(F)F)COC2)nn1 [Ex 3.1.58., (2R,3R,4S,5R,6R)-2-(hydroxymethyl)-5-methoxy-6-((1-(3-(trifluoromethyl)oxetan-3-yl)-1H-1,2,3-triazol-4-yl)methyl)-4-(4-(2,3,4-trifluorophenyl)-1H-1,2,3-triazol-1-yl)tetrahydro-2H-pyran-3-ol] | 200 | 40 |
| CCC1(c2cn(C[C@H]3O[C@H](CO)[C@H](O)[C@H](n4cc(-c5ccc(Br)c(F)c5F)nn4)[C@H]3OC)nn2)COC1 [Ex 4.2.38.] | 2260 | 50 |
| CO[C@@H]1[C@@H](n2cc(-c3ccc(C)c(F)c3F)nn2)[C@@H](O)[C@@H](CO)O[C@@H]1Cc1cn(C2CC3(CC3)C2)nn1 [Ex 1.1.26.] | 17100 | 60 |
| CO[C@@H]1[C@@H](n2cc(-c3ccc(Cl)c(F)c3F)nn2)[C@@H](O)[C@@H](CO)O[C@@H]1Cn1cc(C2(O)CCOCC2)nn1 [Ex 2.2.35.] | 3910 | 60 |

| SMILES | IC50 (human Gal-1 (hGal-1)) [nM] | IC50 (human Gal-3 (hGal-3)) [nM] |
| --- | --- | --- |
| CO[C@@H]1[C@@H](n2cc(-c3ccc(Cl)c(F)c3F)nn2)[C@@H](O)[C@@H](CO)O[C@@H]1Cn1cc(C2CC(F)(F)C2)nn1 [Ex 2.2.83.] | 8800 | 160 |
| CO[C@@H]1[C@@H](n2cc(-c3ccc(C)c(F)c3F)nn2)[C@@H](O)[C@@H](CO)O[C@@H]1Cn1cc(C2(O)CC2)nn1 [Ex 1.2.36.] | 7710 | 80 |
| CO[C@@H]1[C@@H](n2cc(-c3ccc(F)c(F)c3F)nn2)[C@@H](O)[C@@H](CO)O[C@@H]1Cc1cn(C23CC(C(F)(F)F)(C2)C3)nn1 [Ex 3.1.24.] | 2080 | 90 |
| CO[C@@H]1[C@@H](n2cc(-c3ccc(Cl)c(F)c3F)nn2)[C@@H](O)[C@@H](CO)O[C@@H]1Cn1cc(C2(C)CCC2)nn1 [Ex 2.2.13.] | 1510 | 30 |
| CO[C@@H]1[C@@H](n2cc(-c3ccc(Br)c(F)c3F)nn2)[C@@H](O)[C@@H](CO)O[C@@H]1Cn1cc(C(C)(C)O)nn1 [Ex 4.2.34.] | 5490 | 100 |
| CO[C@@H]1[C@@H](n2cc(-c3ccc(Cl)c(F)c3F)nn2)[C@@H](O)[C@@H](CO)O[C@@H]1Cc1cn([C@H]2CCOC[C@@H]2F)nn1 [Example 2.1.66.D, (2R,3R,4S,5R,6R)-4-(4-(4-chloro-2,3-difluorophenyl)-1H-1,2,3-triazol-1-yl)-6-((1-((3R,4S)-3-fluorotetrahydro-2H-pyran-4-yl)-1H-1,2,3-triazol-4-yl)methyl)-2-(hydroxymethyl)-5-methoxytetrahydro-2H-pyran-3-ol] | 780 | 10 |
| CO[C@@H]1[C@@H](n2cc(-c3ccc(Br)c(F)c3F)nn2)[C@@H](O)[C@@H](CO)O[C@@H]1Cc1cn(C2(CF)CC2)nn1 [Ex 4.1.46., (2R,3R,4S,5R,6R)-4-(4-(4-bromo-2,3-difluorophenyl)-1H-1,2,3-triazol-1-yl)-6-((1-(1-(fluoromethyl)cyclopropyl)-1H-1,2,3-triazol-4-yl)methyl)-2-(hydroxymethyl)-5-methoxytetrahydro-2H-pyran-3-ol] | 1940 | 30 |
| CO[C@@H]1[C@@H](n2cc(-c3ccc(C)c(F)c3F)nn2)[C@@H](O)[C@@H](CO)O[C@@H]1Cc1cn(C2(C)CC2)nn1 [Ex 1.1.23.] | 1060 | 20 |
| CO[C@@H]1[C@@H](n2cc(-c3ccc(Cl)c(F)c3F)nn2)[C@@H](O)[C@@H](CO)O[C@@H]1Cc1cn(C2(C(F)F)CCOC2)nn1 (single isomer, unassigned) [Example 2.1.78.B] | 240 | 20 |
| CO[C@@H]1[C@@H](n2cc(-c3ccc(C)c(F)c3F)nn2)[C@@H](O)[C@@H](CO)O[C@@H]1Cc1cn(C23CC(F)(C2)C3)nn1 [Ex 1.1.25.] | 3950 | 40 |
| CO[C@@H]1[C@@H](n2cc(-c3ccc(Cl)c(F)c3F)nn2)[C@@H](O)[C@@H](CO)O[C@@H]1Cc1cn(C2CCCCC2(F)F)nn1 (single isomer, unassigned) [Example 2.1.80.B] | 1740 | 30 |
| CO[C@@H]1[C@@H](n2cc(-c3ccc(F)c(F)c3F)nn2)[C@@H](O)[C@@H](CO)O[C@@H]1Cc1cn([C@@H]2CCOC[C@H]2F)nn1 (single isomer, unassigned) [Example 3.1.66.C, (2R,3R,4S,5R,6R)-6-((1-((3S*,4R*)-3-fluorotetrahydro-2H-pyran-4-yl)-1H-1,2,3-triazol-4-yl)methyl)-2-(hydroxymethyl)-5-methoxy-4-(4-(2,3,4-trifluorophenyl)-1H-1,2,3-triazol-1-yl)tetrahydro-2H-pyran-3-ol] | 270 | 40 |
| CO[C@@H]1[C@@H](n2cc(-c3ccc(Br)c(F)c3F)nn2)[C@@H](O)[C@@H](CO)O[C@@H]1Cc1cn(C23CC(C2)C3)nn1 [Ex 4.1.12.] | 3920 | 40 |
| CO[C@@H]1[C@@H](n2cc(-c3ccc(Br)c(F)c3F)nn2)[C@@H](O)[C@@H](CO)O[C@@H]1Cc1cn(C2(C(F)F)CCC2)nn1 [Ex 4.1.43.] | 960 | 30 |
| CO[C@@H]1[C@@H](n2cc(-c3ccc(C)c(F)c3F)nn2)[C@@H](O)[C@@H](CO)O[C@@H]1Cn1cc(C2(O)CCCC2)nn1 [Ex 1.2.33.] | 5700 | 110 |
| CO[C@@H]1[C@@H](n2cc(-c3ccc(Cl)c(F)c3F)nn2)[C@@H](O)[C@@H](CO)O[C@@H]1Cn1cc(C2CCCC2)nn1 [Ex 2.2.32.] | 3810 | 50 |
